Measurements reported in US20190330167A1, “ACTIVATORS OF HIV LATENCY” (priority 2016, published 2019).
Read-outs that look alike come from different tables or passages of the source.

Experiments:
[1] = system: HIV-1 gene expression in J.Lat10.6 latently infected T-cell line; assay: cells; assay type: cell-based; details: for IC50: Human immunodeficiency virus 1, J-Lat 10.6, 48 h, read-out: IC50 for reactivation of HIV-1 gene expression; for percent of the cells treated with reactivated HIV-1 gene expression: J.Lat10.6 model, alone at 10 μM and in combination, 48 hrs post treatment
Description: The J.Lat10.6 latently infected T-cell line was treated with 4 compounds of the present invention, DP#6 (Compound 41), DP#14 (Compound 7), DP#18 (Compound 65), and DP#19 (Compound 73) and reactivated for 48 hrs. HIV-1 reactivation was measured by flowcytometry for GFP expression. Error bars represent standard deviation of n=3 experiments.
FIG. 45. […] The J.Lat10.6 model of HIV-1 latency was treated with JQ1 (+) and DP#14 (Compound 7) alone at 10 μM and in combination, and the HIV-1 gene expression measured 48 hrs post treatment. Error bars represent standard deviation of n=3 experiments. OPTI represents media alone, without DP#14.
FIG. 47. […] The J.Lat10.6 model of HIV-1 latency was treated with PFI-1 and DP#14 alone at 10 μM and in combination, and the HIV-1 gene expression measured 48 hrs post treatment. Error bars represent standard deviation of n=3 experiments. OPTI represents media alone, without DP#14.
Compounds were also evaluated in a dose ranging titration with HIV latently infected cell lines (J.Lat 6.3 and 10.6). The specificity of the selected compounds in these cell line models, were measured by inserting a CMV-DS.Red reporter into these cells to co-ordinately measure HIV specific LTR-Green fluorescent protein and non-specific DS.Red expression during FACS analysis.
The J.Lat model of HIV-1 latency is a well-established model used widely and is described in detail in the following paper:
HIV reproducibly establishes a latent infection after acute infection of T cells in vitro, Eric Verdin et al, The EMBO Journal Vol. 22 No. 8 pp 1868-1877, 2003

[2] = system: HIV-1 long terminal repeat (LTR)-driven luciferase reporter gene in FlipIn.FM HEK293 cells; assay: cells; assay type: cell-based; details: for EC50: Human immunodeficiency virus 1, HEK293, HIV-LTR driven latent reporter, 11-point, 2-fold dilution series, highest concentration 40 μM, read-out: Latent reporter Av EC50; for fold change in HIV-1 gene expression over the unstimulated baseline: FlipIn.FM model, alone at 10 μM and in combination, 48 hrs post treatment
Description: FIG. 44. […] The FlipIn.FM model of HIV-1 latency was treated with JQ1 (+) and DP#14 (Compound 7) alone at 10 μM and in combination, and the HIV-1 gene expression measured 48 hrs post treatment. Error bars represent standard deviation of n=3 experiments. OPTI represents media alone, without DP#14.
FIG. 46. […] The FlipIn.FM model of HIV-1 latency was treated with PFI-1 and DP#14 alone at 10 μM and in combination, and the HIV-1 gene expression measured 48 hrs post treatment. Error bars represent standard deviation of n=3 experiments. OPTI represents media alone, without DP#14.
Explicitly, HEK293 derived FlipIn-FM and FlipIn-RV dual reporter cells each include a single stable HIV-1 long terminal repeat (LTR)-driven luciferase reporter genes, with a second complimentary non-HIV (off-target) luciferase reporter. These cell lines model post integration latency and read-through transcription by expressing a low level of HIV-1 Tat protein via a native Internal Ribosome Entry Site (IRES) found within Tat, from a chimeric cellular-tat gene cassette. FlipIn-FM and FlipIn-RV clones were chosen for low basal levels of LTR activity and high responsiveness to Tat as well as many Latency Reversing Agents (LRAs).
The dual reporter cell lines contain three stably integrated constructs that together allow for detection of novel LRAs, capable of potent and specific HIV reactivation. The FlipIn.FM line contains a proviral LTR-driven nef/CBR reporter fusion gene, allowing for detection of viral gene expression. A second CMV-driven CBG luciferase reporter allows for detection of off target drug effects, including non-specific activation and drug toxicity. The third construct contains the first coding exon of HIV-1 tat, within human Growth Hormone (hGH) as a chimeric gene, expressing HIV-1 Tat protein from an IRES mechanism that underlies the tat exon. This construct models read-through transcription and the low level of Tat protein expression that occurs during post integration latency. The counter screening reverse cell line, FlipIn.RV, contains the same three components with the Click Beetle Luciferase genes in the opposite orientation (LTR-CBG and CMV-CBR) for counter screening.
Compounds were evaluated in an 11-point titration using normal CMV-CBG/LTR-CBR reporter cell line and an 11 point reverse CMV-CBR/LTR-CBG reporter cell line.
The FlipIn cell lines were therefore designed with a dual purpose, to detect novel compounds that reactivate HIV-1 and to also screen out compounds that behaved in a largely non-specific manner. To achieve the latter, the cell lines contain an “off target” reporter gene construct, driven by the unrelated CMV-IE promoter, that allows for the detection of drug mediated off target effects including global gene activation as well as possible toxicity.
The HIV-LTR driven latent reporter gene identifies the HIV-specific activation, and the term “global reporter” is interchangeable with “off target reporter” and refers to the unrelated CMV-IE promoter driven reporter gene, which is used as a surrogate for global gene activation. […] The highest concentration tested here was 40 μM.

[3] = system: latent HIV in resting memory CD4+ T cells isolated by leukapheresis from HIV+ donors on antiretroviral therapy; assay type: cell-based, HIV-1; details: 72 hrs
Excerpt: FIG. 41a. […] Resting memory CD4+ T cells isolated by leukapheresis from HIV+ donors on antiretroviral therapy were reactivated for 72 hrs using known LRAs including vorinostat (Vor) also known as suberanilohydroxamic acid, another hydroxamic acid panobinostat (Pan), and the depsipeptide Romidepsin (Rom) that are all HDACi, together with JQ1 (+) which is a thienotriazolodiazepine known to inhibit the BET family of bromodomain proteins including BRD2, BRD3, and BRD4, and compared with compounds according to the present invention DP#6 (Compound 41), DP#14 (Compound 7), and DP#16 (Compound 64).
FIG. 41c. […] Resting memory CD4+ T cells isolated by leukapheresis from HIV+ donors on antiretroviral therapy were reactivated for 72 hrs using known (vorinostat, Vor; panobinostat, Pan; romidepsin, Rom; and JQ1 (+)) and compounds according to the present invention (DP#6 (Compound 41), DP#14 (Compound 7), and DP#16 (Compound 64)).
FIG. 42c. […] Resting memory CD4+ T cells isolated by leukapheresis from HIV+ donors on antiretroviral therapy were reactivated for 72 hrs using known (JQ1 (+)) and compounds according to the present invention (DP#14 (Compound 7)) alone and in combination, and HIV-1 RNA detected through qPCR.
Total peripheral blood mononuclear cells (PBMC) were stored frozen in liquid nitrogen and prior to use, vials of frozen cells (0.5×10^8 PBMCs/vial or 1×10^8 PBMCs/vial) were quick thawed in a 42° C. water bath. Cells were promptly transferred to a 15 mL tube with 5 mL FBS dropwise then, then 6 mL of RF10 was added. Cells were pelleted at 300 g for 10 min at room temperature. Following aspiration, the cells were resuspended in RF10, pooled into a 50 mL tube which was topped up with RF10. PBMC were pelleted again at 300 g for 10 min at room temperature. Following aspiration, the cells were resuspended in PBS(−/−) and counted. CD4+ T cells were then isolated from 4×10^8 PBMCs that were pelleted and resuspended in PBS(−/−) at 1×10^7 cells/40 μL. 10 μL of CD4+ T cell Biotin-Antibody cocktail (Miltenyi Biotec) for every 1×10^7 cells was added and the mix refrigerated for 5 min. 30 μL of PBS(−/−) for every 1×10^7 cells was added, and 20 μL of the CD4+ T cell MicroBeads for every 1×10^7 cells was added and the mix refrigerated for 10 min. Unlabelled CD4+ T cells were then isolated by negative selection using magnetic separation. CD4+ T cells were then counted before being diluted to 4×10^6 cells/500 μL in RF10 for each condition and seeded into a 48 well plate.
Latent HIV was reactivated in the presence of the HIV integrase inhibitor Raltagravir (Ral) to prevent any further rounds of infection. Ral was made to [2 μM] in RF10+IL-2 (2 U/mL), and used to make 1 mL preparation of each drug up at [×2]. 500 μL of the [×2 Ral/IL-2/drug] was then added to the appropriate wells containing cells. Cells were transported to PC3 and incubated for 72 hrs.
Following reactivation, 800 μL of cell supernatant was transferred to labeled 1.5 mL screwcap tubes, pelletted at 800 g for 10 min then transferred to a second set of tubes and frozen for possible use at a later date. 800 μL of PBS(−/−) was added to each well to mix the cells and 50 μL of cells transferred to another set of tubes for live/dead staining and flow cytometry. Cells were pelleted at 400 g for 10 min, the media aspirated and cells resuspended in 100 μL of a [×1] APC-cy7 live/dead stain (Life technologies).

J.Lat10.6 T-cell line = assay: Dose dependent toxicity in the J.Lat model; assay type: cell-based; details: for concentration above which notable toxicity: dose dependent toxic effect
[4] = normalized between unstimulated baseline and PMA positive control as 100%, concentration not given

SMILES | IC50 [1] [nM] | EC50 [2] [nM] | induction of HIV-1 gene expression, % of the normalized value [3, 4] [%] | also measured
Cc1cnc(NC(=O)CCCOc2ccccc2)s1 [Compound 41] | ~16500 | 14000 | – | induction of HIV-1 gene expression, % of the normalized value ([3]; at 5 μM, normalized between unstimulated baseline and PMA as 100%): 25%; dose dependent toxicity (J.Lat10.6 T-cell line; dosed as high as 40 μM): no such toxicity
Cc1ccc(N2CCN(C(=O)Nc3ncc(Cl)s3)CC2)cc1Cl [Compound 64] | – | 220 | – | activation of HIV-1 gene expression in leukapheresis samples ([3]; at 100 nM, n=4 or n=5 donors): activation in only one patient
Cc1ccc(N2CCN(C(=O)Nc3ncc(C#N)s3)CC2)cc1Cl [Compound 65] | 650 | 330 | – | concentration above which notable toxicity (J.Lat10.6 T-cell line): above 1.25 μM
Cc1cnc(NC(=O)N2CCN(c3cnc(Cl)c(Cl)c3)CC2)s1 [Compound 73] | < 110 | 280 | – | concentration above which notable toxicity (J.Lat10.6 T-cell line): > 156 nM
Cc1sc2c(c1C)C(c1ccc(Cl)cc1)=N[C@@H](CC(=O)OC(C)(C)C)c1nnc(C)n1-2 [JQ1 (+), reference compound] | – | – | 39 | percent of the cells treated with reactivated HIV-1 gene expression [1]: 22.8%; fold change in HIV-1 gene expression over the unstimulated baseline [2]: 12.8 fold
COc1ccccc1S(=O)(=O)Nc1ccc2c(c1)CN(C)C(=O)N2 [PFI-1, reference compound] | – | – | – | percent of the cells treated with reactivated HIV-1 gene expression [1]: 20.6%; fold change in HIV-1 gene expression over the unstimulated baseline [2]: 3.6 fold
Cc1[nH]c2ccccc2c1CCNCc1ccc(/C=C/C(=O)NO)cc1 [Panabinostat, reference compound] | – | – | 57 | –
C/C=C1\NC(=O)[C@H]2CSSCC/C=C/[C@H](CC(=O)N[C@H](C(C)C)C(=O)N2)OC(=O)[C@H](C(C)C)NC1=O [Romidepsin, reference compound] | – | – | 67 | –
O=C(CCCCCCC(=O)Nc1ccccc1)NO [Vorinostat, suberanilohydroxamic acid, reference compound] | – | – | 58 | –
